Test results published in patent publication US10160726B2, “Quinolone derivatives as antibacterials” (priority 2014, dated 2018).
pIC50: −log10 of the molar value. Values after ≈ are worked out from the molar mass of the structure shown. Structures can show the parent of a compound that is named as a salt. Where two headings read alike, the source gives them in different places.

What was measured:
[1] = tested on: S. aureus NB01006-AVR005 (gyrA S84L, grlA S80F, grlB E471K); test: microbe, parasite or virus in culture; assay type: cell-based; details: Staphylococcus aureus, 20 h, read-out: Antibacterial activity (MIC) NB01006-AVR005
[2] = molecular target: E. coli DNA gyrase (GyrA-B) (Escherichia coli, UniProt P0AES4); test: Supercoiling assay of E. coli gyrase; assay type: biochemical; details: supercoiling activity of E. coli gyrase (GyrA-B); read-out: GyrA-B IC50 (Enzyme)
Chain of E. coli DNA gyrase (GyrA-B) (P0AES4 whole entry): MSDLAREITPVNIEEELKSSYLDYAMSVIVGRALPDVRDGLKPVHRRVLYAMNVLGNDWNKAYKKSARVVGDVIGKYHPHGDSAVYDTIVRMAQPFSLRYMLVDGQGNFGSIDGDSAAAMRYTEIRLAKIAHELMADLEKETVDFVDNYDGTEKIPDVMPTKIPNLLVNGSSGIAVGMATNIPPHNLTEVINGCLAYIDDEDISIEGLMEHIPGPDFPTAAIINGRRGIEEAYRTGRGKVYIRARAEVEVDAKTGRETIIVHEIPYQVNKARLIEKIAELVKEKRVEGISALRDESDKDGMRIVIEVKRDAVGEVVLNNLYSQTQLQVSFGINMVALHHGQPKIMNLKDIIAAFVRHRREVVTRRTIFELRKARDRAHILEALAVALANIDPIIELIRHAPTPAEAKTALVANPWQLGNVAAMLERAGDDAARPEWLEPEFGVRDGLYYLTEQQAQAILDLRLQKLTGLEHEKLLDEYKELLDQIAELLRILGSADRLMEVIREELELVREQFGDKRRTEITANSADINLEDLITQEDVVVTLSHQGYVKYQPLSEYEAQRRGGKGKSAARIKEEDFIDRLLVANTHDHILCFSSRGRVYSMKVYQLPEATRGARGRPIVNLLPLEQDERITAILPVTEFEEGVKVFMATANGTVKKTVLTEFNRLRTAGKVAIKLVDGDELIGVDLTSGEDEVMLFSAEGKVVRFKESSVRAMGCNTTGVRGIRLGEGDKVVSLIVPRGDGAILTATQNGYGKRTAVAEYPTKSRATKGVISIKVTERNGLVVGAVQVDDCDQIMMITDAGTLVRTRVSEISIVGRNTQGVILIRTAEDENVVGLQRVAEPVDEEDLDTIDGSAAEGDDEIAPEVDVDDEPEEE
Description: Method 1: Supercoiling Assay of E. Coli Gyrase
Enzymatic activity of E. coli DNA gyrase reconstituted from its purified subunits was assessed by monitoring the introduction of supercoils into the relaxed plasmid pHOT-1 (TopoGEN, TG2035-3). To form the functional gyrase A2B2 heterotetrameric enzyme, equal molar concentrations of the GyrA and GyrB subunits were combined at high protein concentration (500 nM) and incubated on ice for 1 hour prior to assay start in reaction buffer without ATP or the pHOT-1 plasmid. The reaction mixture (25 μl) contained 10 nM enzyme, 10 ng/μl pHOT-1, 1 mM ATP, 35 mM Tris-HCl pH 7.5, 24 mM KCl, 4 mM MgCl2, 2 mM DTT, 1.8 mM spermidine, 6.5% glycerol, and 100 μg/ml bovine serum albumin. The reaction was carried out at 37° C. for 90 minutes and terminated by the addition of 2.5 μl of 10× stop solution (0.9% SDS, 50% glycerol, 0.05% bromophenol blue). […] Gels were stained with ethidium bromide (0.5 μg/ml) for 30 minutes and destained in water for 20 minutes. All gels were analyzed using the BIO-RAD ChemiDocTm XRS+ with Image Lab 3.0 software. The 50% inhibition concentration (IC50) was determined as being the compound concentration at which the supercoiled band was reduced by 50% from the DMSO drug free control (Microsoft Excel 2010 IDBS XLfit, GraftPad Prism 6).

[3] = tested on: E. coli NB27177 (efflux deficient CGSC 11430, ΔtolC732::kan); test: microbe, parasite or virus in culture; assay type: cell-based; details: Escherichia coli, 20 h, read-out: Antibacterial activity (MIC) NB27177
[4] = tested on: P. aeruginosa NB52023 (efflux deficient K1542, ΔmexX ΔmexB); test: microbe, parasite or virus in culture; assay type: cell-based; details: Pseudomonas aeruginosa, 20 h, read-out: Antibacterial activity (MIC) NB52023
[5] = tested on: E. coli ATCC 25922 (NB27001); test: MIC, broth microdilution (CLSI); assay type: cell-based; details: Escherichia coli, ATCC25922; E. coli ATCC 25922; 35° C., 20 hours; read-out: Antibacterial activity (MIC) NB27001
[6] = tested on: S. aureus ATCC 29213 (NB01001); test: MIC, broth microdilution (CLSI); assay type: cell-based; details: Staphylococcus aureus, ATCC29213; S. aureus ATCC 29213; 35° C., 20 hours; read-out: Antibacterial activity (MIC) NB01001
[7] = tested on: P. aeruginosa NB52023-CDK0006 (gyrA T83I, parC S87L); test: microbe, parasite or virus in culture; assay type: cell-based; details: Pseudomonas aeruginosa, 20 h, read-out: Antibacterial activity (MIC) NB52023-CDK0006
[8] = tested on: P. aeruginosa NB52019 (wild-type PAO1); test: MIC, broth microdilution (CLSI); assay type: cell-based; details: Pseudomonas aeruginosa, read-out: Antibacterial activity (MIC) NB52019
[9] = P. aeruginosa wild-type PAO1, 35° C., 20 hours

Row | SMILES | MIC [1] [µg/mL] | pIC50 [2] | MIC [3] [µg/mL] | MIC [4] [µg/mL] | MIC [5] [µg/mL] | MIC [6] [µg/mL] | MIC [7] [µg/mL] | MIC ([8]; PAO1, 20 h) [µg/mL] | MIC [8, 9] [µg/mL]
1 | Cc1c(N2CC[C@@H]([C@H](C)N)C2)c(F)cc2cc(C(=O)O)c(=O)n(C3CC3)c12.Cl [Example 1.1, 7-((R)-3-((S)-1-aminoethyl)pyrrolidin-1-yl)-1-cyclopropyl-6-fluoro-8-methyl-2-oxo-1,2-dihydroquinoline-3-carboxylic acid hydrochloride salt] | 2 | 6.17 | – | – | – | – | – | – | –
2 | Cc1c(N2CC[C@@H]([C@H](C)N)C2)c(F)cc2cc(N)c(=O)n(C3CC3)c12 [Example 8, 3-amino-7-((R)-3-((S)-1-aminoethyl)pyrrolidin-1-yl)-1-cyclopropyl-6-fluoro-8-methylquinolin-2(1H)-one hydrochloride salt] | – | 5.77 | – | – | – | – | – | – | –
3 | Cc1c(N2CCC(C3(N)CC3)C2)c(F)cc2ccc(=O)n(C3CC3)c12 (centres unmarked) [Example 9.2, 7-(3-(1-Aminocyclopropyl)pyrrolidin-1-yl)-1-cyclopropyl-6-fluoro-8-methylquinolin-2(1H)-one] | 0.125 (≈ 0.366 µM) | 5.92 | 0.06 (≈ 0.176 µM) | 16 (≈ 46.9 µM) | 4 (≈ 11.7 µM) | 0.125 (≈ 0.366 µM) | 32 (≈ 93.7 µM) | > 32 | –
4 | Cc1c(-c2ccc(N)nc2)c(F)cc2cc(O)c(=O)n(C3CC3)c12 [Example 11.2, 7-(6-aminopyridin-3-yl)-1-cyclopropyl-6-fluoro-3-hydroxy-8-methylquinolin-2(1H)-one] | 2 (≈ 6.15 µM) | 5.09 | 0.125 (≈ 0.384 µM) | 16 (≈ 49.2 µM) | 8 (≈ 24.6 µM) | 1 (≈ 3.07 µM) | > 32 | > 32 | –
5 | COc1c(N2CC[C@@H]([C@H](C)N)C2)c(F)cc2cc(C(=O)O)c(=O)n(C3CC3)c12 [Example 12, 7-((R)-3-((S)-1-aminoethyl)pyrrolidin-1-yl)-1-cyclopropyl-6-fluoro-8-methoxy-2-oxo-1,2-dihydroquinoline-3-carboxylic acid hydrochloride] | – | 5.33 | – | – | – | – | – | – | –
6 | Cc1c(N2CC[C@@H]([C@H](C)N)C2)c(F)cc2c(C(=O)O)cc(=O)n(C3CC3)c12 [Example 33, 7-((R)-3-((S)-1-aminoethyl)pyrrolidin-1-yl)-1-cyclopropyl-6-fluoro-8-methyl-2-oxo-1,2-dihydroquinoline-4-carboxylic acid] | > 32 | 4.79 | 16 (≈ 42.8 µM) | > 32 | 32 (≈ 85.7 µM) | 32 (≈ 85.7 µM) | > 32 | 32 (≈ 85.7 µM) | –
7 | Cc1c(N2CC[C@@H]([C@H](C)N)C2)c(F)cc2c(-c3nnn[nH]3)cc(=O)n(C3CC3)c12 [Example 39, 7-((R)-3-((S)-1-aminoethyl)pyrrolidin-1-yl)-1-cyclopropyl-6-fluoro-8-methyl-4-(1H-tetrazol-5-yl)quinolin-2(1H)-one] | > 32 | 5.01 | 32 (≈ 80.5 µM) | > 32 | 32 (≈ 80.5 µM) | 32 (≈ 80.5 µM) | > 32 | 32 (≈ 80.5 µM) | –
8 | Cc1c(N2CCC(CN)C2)c(F)cc2c(CN(C)C)cc(=O)n(C3CC3)c12.O=C(O)C(F)(F)F (centres unmarked) [Example 89, 7-(3-(aminomethyl)pyrrolidin-1-yl)-1-cyclopropyl-4-((dimethylamino)methyl)-6-fluoro-8-methylquinolin-2(1H)-one TFA salt] | 4 | – | 0.5 | 16 | 4 | 1 | 32 | – | > 32
9 | Cc1c(N2CCC(CN)C2)c(F)cc2c(CCN)cc(=O)n(C3CC3)c12.O=C(O)C(F)(F)F (centres unmarked) [Example 91, 4-(2-aminoethyl)-7-(3-(aminomethyl)pyrrolidin-1-yl)-1-cyclopropyl-6-fluoro-8-methylquinolin-2(1H)-one TFA salt] | 1 | – | 1 | 8 | 8 | 1 | 16 | – | 16
10 | Cc1c(N2CCC(F)(CN)C2)c(F)cc2cc(CN)c(=O)n(C3CC3)c12 (centres unmarked) [Example 93, 3-(aminomethyl)-7-(3-(aminomethyl)-3-fluoropyrrolidin-1-yl)-1-cyclopropyl-6-fluoro-8-methylquinolin-2(1H)-one formic acid salt] | 16 | – | 1 | 4 | 8 | 2 | 8 | 8 | –
11 | Cc1c(N2CCC(CN)C2)c(F)c(C#N)c2ccc(=O)n(C3CC3)c12.O=C(O)C(F)(F)F (centres unmarked) [Example 99, 7-(3-(aminomethyl)pyrrolidin-1-yl)-1-cyclopropyl-6-fluoro-8-methyl-2-oxo-1,2-dihydroquinoline-5-carbonitrile TFA salt] | 0.06 | – | 0.125 | 2 | 4 | 0.125 | 4 | – | > 32
12 | Cc1c(N2CCC(CN)C2)c(F)c(CN)c2ccc(=O)n(C3CC3)c12.O=C(O)C(F)(F)F (centres unmarked) [Example 100, 5-(aminomethyl)-7-(3-(aminomethyl)pyrrolidin-1-yl)-1-cyclopropyl-6-fluoro-8-methylquinolin-2(1H)-one TFA salt] | 4 | – | 2 | 8 | 32 | 8 | 16 | – | > 32
13 | Cc1c(F)c(N2CCC(CN)C2)c(C)c2c1ccc(=O)n2C1CC1.O=C(O)C(F)(F)F (centres unmarked) [Example 101, 7-(3-(aminomethyl)pyrrolidin-1-yl)-1-cyclopropyl-6-fluoro-5,8-dimethylquinolin-2(1H)-one TFA salt] | 0.125 | – | 0.125 | 8 | 8 | 0.5 | 16 | – | > 32
14 | Cc1c(N2CC[C@@H]([C@H](C)N)C2)c(F)c(F)c2ccc(=O)n(C3CC3)c12.O=C(O)C(F)(F)F [Example 106, 7-((R)-3-((S)-1-aminoethyl)pyrrolidin-1-yl)-1-cyclopropyl-5,6-difluoro-8-methyl quinolin-2(1H)-one TFA] | 0.015 | – | < 0.03 | 0.5 | 0.125 | 0.015 | 1 | – | 2
15 | Cl.NCc1c(N2CCC(F)(CN)C2)c(F)cc2ccc(=O)n(C3CC3)c12 (centres unmarked) [Example 111, 8-(aminomethyl)-7-(3-(aminomethyl)-3-fluoropyrrolidin-1-yl)-1-cyclopropyl-6-fluoroquinolin-2(1H)-one HCl salt] | 8 | – | 2 | 8 | 8 | 8 | 16 | – | > 32
16 | Cl.N#Cc1c(N2CC[C@H](N)C2)c(F)cc2ccc(=O)n(C3CC3)c12 [Example 113, (S)-7-(3-aminopyrrolidin-1-yl)-1-cyclopropyl-6-fluoro-2-oxo-1,2-dihydroquinoline-8-carbonitrile HCl salt] | 16 | – | 0.125 | 2 | 0.5 | 8 | 4 | – | 16
17 | N#Cc1c(N2CC[C@H](N)C2)c(F)cc2c(CN)cc(=O)n(C3CC3)c12 [Example 114, (S)-4-(aminomethyl)-7-(3-aminopyrrolidin-1-yl)-1-cyclopropyl-6-fluoro-2-oxo-1,2-dihydroquinoline-8-carbonitrile] | 32 (≈ 93.7 µM) | – | 0.5 (≈ 1.46 µM) | 2 (≈ 5.86 µM) | 2 (≈ 5.86 µM) | 16 (≈ 46.9 µM) | 4 (≈ 11.7 µM) | 16 (≈ 46.9 µM) | –
18 | Cc1c(N2CCC(F)(CN)C2)c(F)c(F)c2c(CN)cc(=O)n(C3CCC3)c12 (centres unmarked) [Example 115, 4-(aminomethyl)-7-(3-(aminomethyl)-3-fluoropyrrolidin-1-yl)-1-cyclobutyl-5,6-difluoro-8-methylquinolin-2(1H)-one TFA salt] | 4 | – | 0.5 | 8 | 1 | 2 | 16 | > 32 | –
